The text below walks through data of PMC4685510, “A Cell Biologist’s Field Guide to Aurora Kinase Inhibitors” (Frontiers in Oncology, 2015).

Holding throughout (assay): biochemical
Holding throughout (assay type): biochemical

Test [1] addresses T1, 363 human kinases (including Aurora A/B/C) (Homo sapiens, UniProt O00444).
T1 sequence (O00444 1-970): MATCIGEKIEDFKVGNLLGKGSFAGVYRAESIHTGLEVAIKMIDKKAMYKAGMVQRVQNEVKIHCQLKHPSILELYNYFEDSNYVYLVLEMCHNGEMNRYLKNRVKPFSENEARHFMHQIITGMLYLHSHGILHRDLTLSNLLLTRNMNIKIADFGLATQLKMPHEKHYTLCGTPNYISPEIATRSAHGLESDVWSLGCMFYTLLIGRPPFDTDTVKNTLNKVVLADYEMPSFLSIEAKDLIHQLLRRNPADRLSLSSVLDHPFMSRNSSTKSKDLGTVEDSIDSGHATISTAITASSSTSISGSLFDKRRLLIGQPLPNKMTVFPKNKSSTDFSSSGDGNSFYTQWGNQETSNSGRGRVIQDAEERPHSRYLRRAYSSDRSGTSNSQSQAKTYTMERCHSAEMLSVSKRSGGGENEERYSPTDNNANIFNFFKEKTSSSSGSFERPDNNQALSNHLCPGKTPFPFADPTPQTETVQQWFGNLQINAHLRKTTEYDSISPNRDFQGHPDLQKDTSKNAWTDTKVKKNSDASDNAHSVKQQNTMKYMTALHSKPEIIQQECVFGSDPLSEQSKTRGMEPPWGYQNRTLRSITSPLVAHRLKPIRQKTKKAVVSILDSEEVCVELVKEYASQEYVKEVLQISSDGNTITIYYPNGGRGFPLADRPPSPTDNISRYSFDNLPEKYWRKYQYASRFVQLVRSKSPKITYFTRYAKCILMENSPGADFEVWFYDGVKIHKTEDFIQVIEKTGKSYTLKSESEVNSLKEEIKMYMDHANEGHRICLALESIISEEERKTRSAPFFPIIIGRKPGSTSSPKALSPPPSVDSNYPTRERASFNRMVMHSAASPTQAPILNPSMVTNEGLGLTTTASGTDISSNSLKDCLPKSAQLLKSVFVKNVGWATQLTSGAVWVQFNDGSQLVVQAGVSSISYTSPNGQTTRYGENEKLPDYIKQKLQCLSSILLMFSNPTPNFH
As to conditions: PLK4/SAK; for remaining activity at 0.1 µM: 100 nM; for remaining activity at 0.1 µM / remaining activity at 0.5 µM: read-out: % Enzyme Activity (relative to DMSO controls).
From the text: (§1) However, the Aurora A/B selectivity ratios derived from our in vitro and in vivo data can be compared to prioritize inhibitors.

Test [2] has as its target 363 human kinases (including Aurora A/B/C) (Homo sapiens, UniProt O75116). As to conditions: ROCK2; for remaining activity at 0.1 µM: 100 nM; for remaining activity at 0.1 µM / remaining activity at 0.5 µM: read-out: % Enzyme Activity (relative to DMSO controls).
From the text: as §1
Test [3] addresses 363 human kinases (including Aurora A/B/C) (Homo sapiens, UniProt O94921). As to conditions: CDK14/cyclin Y (PFTK1), [ATP] 10 µM; for remaining activity at 0.1 µM: 100 nM; for remaining activity at 0.1 µM / remaining activity at 0.5 µM: read-out: % Enzyme Activity (relative to DMSO controls).
From the text: as §1
Test [4] addresses 363 human kinases (including Aurora A/B/C) (Homo sapiens, UniProt P45983). As to conditions: JNK1; for remaining activity at 0.1 µM: 100 nM; for remaining activity at 0.1 µM / remaining activity at 0.5 µM: read-out: % Enzyme Activity (relative to DMSO controls).
From the text: as §1
For test [5], the target named is 363 human kinases (including Aurora A/B/C) (Homo sapiens, UniProt Q07002). As to conditions: CDK18/cyclin Y (PCTK3), [ATP] 50 µM; for remaining activity at 0.1 µM: 100 nM; for remaining activity at 0.1 µM / remaining activity at 0.5 µM: read-out: % Enzyme Activity (relative to DMSO controls).
363 human kinases (including Aurora A/B/C) (Homo sapiens, UniProt Q07002), sequence (Q07002 whole entry): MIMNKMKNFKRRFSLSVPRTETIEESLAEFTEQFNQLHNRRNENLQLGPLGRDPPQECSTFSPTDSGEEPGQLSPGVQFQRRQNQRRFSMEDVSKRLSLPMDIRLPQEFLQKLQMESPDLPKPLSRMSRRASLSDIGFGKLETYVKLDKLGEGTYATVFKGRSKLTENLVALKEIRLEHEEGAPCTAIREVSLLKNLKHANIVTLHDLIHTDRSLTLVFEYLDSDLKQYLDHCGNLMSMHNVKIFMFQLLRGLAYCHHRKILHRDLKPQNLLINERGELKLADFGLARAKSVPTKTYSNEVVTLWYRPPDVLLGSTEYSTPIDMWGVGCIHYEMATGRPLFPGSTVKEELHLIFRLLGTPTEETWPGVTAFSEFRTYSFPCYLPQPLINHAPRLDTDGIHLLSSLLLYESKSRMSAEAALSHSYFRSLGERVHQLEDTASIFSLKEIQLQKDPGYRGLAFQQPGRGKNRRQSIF
From the text: as §1
In test [6] the target is T2, 363 human kinases (including Aurora A/B/C) (Homo sapiens, UniProt Q12851).
T2 sequence (Q12851 1-820): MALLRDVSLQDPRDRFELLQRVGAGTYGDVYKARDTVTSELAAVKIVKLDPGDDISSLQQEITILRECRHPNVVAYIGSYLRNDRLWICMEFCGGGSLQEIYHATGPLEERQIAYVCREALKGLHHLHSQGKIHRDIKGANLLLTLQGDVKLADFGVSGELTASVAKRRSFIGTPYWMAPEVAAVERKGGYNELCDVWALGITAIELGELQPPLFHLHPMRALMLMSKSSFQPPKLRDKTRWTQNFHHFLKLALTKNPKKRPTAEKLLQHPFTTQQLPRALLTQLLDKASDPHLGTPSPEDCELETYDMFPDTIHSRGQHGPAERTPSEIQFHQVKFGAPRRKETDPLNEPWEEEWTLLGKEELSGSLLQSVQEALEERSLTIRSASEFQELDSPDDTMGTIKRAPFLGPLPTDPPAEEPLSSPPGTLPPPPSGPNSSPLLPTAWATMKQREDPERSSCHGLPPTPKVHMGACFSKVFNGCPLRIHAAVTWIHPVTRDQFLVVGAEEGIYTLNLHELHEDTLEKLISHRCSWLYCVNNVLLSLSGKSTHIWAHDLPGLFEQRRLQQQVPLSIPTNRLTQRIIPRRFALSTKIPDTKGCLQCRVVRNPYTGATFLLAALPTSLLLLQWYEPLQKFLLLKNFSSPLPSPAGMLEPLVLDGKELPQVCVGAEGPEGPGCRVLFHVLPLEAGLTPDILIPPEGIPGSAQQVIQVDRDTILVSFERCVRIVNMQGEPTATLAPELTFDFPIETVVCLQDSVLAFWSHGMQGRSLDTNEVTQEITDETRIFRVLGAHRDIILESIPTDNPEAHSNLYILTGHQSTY
As to conditions: GCK/MAP4K2; for remaining activity at 0.1 µM: 100 nM; for remaining activity at 0.1 µM / remaining activity at 0.5 µM: read-out: % Enzyme Activity (relative to DMSO controls).
From the text: as §1

Test [7] has as its target 363 human kinases (including Aurora A/B/C) (Homo sapiens, UniProt Q52WX2). As to conditions: SBK1; for remaining activity at 0.1 µM: 100 nM; for remaining activity at 0.1 µM / remaining activity at 0.5 µM: read-out: % Enzyme Activity (relative to DMSO controls).
From the text: as §1
Test [8] has as its target 363 human kinases (including Aurora A/B/C) (Homo sapiens, UniProt Q9P286). As to conditions: PAK5; for remaining activity at 0.1 µM: 100 nM; for remaining activity at 0.1 µM / remaining activity at 0.5 µM: read-out: % Enzyme Activity (relative to DMSO controls).
From the text: as §1

363 human kinases (including Aurora A/B/C) (Homo sapiens, UniProt O75116), sequence (O75116 whole entry): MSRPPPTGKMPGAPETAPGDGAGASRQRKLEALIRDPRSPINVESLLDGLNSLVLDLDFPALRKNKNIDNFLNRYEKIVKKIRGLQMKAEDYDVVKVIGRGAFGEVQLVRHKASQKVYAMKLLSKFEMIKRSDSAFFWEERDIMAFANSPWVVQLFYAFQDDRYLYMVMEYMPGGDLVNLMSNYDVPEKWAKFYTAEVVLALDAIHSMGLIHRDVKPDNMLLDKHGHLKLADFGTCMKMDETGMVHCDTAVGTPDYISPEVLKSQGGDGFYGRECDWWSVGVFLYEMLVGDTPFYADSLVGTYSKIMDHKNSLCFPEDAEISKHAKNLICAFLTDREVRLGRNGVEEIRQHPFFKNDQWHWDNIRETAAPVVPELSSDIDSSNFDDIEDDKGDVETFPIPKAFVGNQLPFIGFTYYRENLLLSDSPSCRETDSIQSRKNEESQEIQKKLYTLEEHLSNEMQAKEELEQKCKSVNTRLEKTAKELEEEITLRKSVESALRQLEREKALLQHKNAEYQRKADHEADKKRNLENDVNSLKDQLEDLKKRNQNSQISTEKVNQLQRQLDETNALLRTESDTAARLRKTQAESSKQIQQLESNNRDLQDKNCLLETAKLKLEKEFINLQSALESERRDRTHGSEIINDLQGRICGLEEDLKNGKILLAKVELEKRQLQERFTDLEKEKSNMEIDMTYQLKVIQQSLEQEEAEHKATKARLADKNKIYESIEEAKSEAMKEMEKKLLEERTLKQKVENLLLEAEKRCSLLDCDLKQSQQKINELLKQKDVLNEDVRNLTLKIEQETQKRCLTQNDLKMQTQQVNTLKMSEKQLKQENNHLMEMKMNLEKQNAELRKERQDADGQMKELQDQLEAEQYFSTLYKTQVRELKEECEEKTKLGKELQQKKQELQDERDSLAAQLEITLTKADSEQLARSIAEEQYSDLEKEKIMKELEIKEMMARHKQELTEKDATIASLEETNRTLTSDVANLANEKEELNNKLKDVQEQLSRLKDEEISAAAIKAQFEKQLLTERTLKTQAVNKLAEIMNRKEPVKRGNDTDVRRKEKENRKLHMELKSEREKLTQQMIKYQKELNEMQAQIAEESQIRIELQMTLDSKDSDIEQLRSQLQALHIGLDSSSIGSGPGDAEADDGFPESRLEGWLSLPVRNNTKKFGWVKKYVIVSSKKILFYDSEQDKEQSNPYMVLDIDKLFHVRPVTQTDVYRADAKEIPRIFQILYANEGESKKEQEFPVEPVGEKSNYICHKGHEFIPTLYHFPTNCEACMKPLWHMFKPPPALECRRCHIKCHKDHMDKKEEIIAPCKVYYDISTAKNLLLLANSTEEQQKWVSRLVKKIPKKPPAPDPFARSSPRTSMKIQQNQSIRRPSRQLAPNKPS
363 human kinases (including Aurora A/B/C) (Homo sapiens, UniProt O94921), sequence (O94921 whole entry): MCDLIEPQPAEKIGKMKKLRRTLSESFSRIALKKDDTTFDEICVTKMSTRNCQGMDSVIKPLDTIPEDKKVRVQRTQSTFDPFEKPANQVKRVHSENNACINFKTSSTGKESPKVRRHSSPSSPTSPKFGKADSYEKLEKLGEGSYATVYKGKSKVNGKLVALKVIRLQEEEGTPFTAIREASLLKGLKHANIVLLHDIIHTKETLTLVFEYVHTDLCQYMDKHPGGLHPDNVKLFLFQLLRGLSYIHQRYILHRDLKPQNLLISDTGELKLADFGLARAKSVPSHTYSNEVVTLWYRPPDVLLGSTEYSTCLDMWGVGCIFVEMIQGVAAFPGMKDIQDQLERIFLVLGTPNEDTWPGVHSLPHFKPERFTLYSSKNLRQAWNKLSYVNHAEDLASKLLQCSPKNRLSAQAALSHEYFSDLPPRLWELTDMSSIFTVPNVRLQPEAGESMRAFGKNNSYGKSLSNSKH
363 human kinases (including Aurora A/B/C) (Homo sapiens, UniProt P45983), sequence (P45983 whole entry): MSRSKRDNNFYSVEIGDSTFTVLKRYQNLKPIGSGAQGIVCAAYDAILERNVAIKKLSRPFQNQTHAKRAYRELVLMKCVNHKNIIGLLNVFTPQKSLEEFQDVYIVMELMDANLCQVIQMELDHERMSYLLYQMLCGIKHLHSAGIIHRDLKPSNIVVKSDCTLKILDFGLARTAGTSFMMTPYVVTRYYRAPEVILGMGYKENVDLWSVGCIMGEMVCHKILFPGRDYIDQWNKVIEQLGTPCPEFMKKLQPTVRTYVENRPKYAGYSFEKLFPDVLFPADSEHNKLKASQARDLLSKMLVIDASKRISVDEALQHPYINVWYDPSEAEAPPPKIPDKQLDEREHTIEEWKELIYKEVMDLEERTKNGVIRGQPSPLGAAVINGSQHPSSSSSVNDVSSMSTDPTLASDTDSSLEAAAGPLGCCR
363 human kinases (including Aurora A/B/C) (Homo sapiens, UniProt Q52WX2), sequence (Q52WX2 whole entry): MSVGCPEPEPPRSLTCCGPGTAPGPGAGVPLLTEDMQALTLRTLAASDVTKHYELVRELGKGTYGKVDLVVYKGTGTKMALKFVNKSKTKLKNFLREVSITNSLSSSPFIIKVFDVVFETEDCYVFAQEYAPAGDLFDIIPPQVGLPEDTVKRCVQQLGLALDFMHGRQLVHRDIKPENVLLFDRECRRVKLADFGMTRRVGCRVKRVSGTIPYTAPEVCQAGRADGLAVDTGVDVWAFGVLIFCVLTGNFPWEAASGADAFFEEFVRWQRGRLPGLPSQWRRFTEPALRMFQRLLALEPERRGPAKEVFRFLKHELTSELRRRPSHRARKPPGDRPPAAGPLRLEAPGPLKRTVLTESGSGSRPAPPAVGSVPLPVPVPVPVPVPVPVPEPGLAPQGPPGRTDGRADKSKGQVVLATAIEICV
363 human kinases (including Aurora A/B/C) (Homo sapiens, UniProt Q9P286), sequence (Q9P286 whole entry): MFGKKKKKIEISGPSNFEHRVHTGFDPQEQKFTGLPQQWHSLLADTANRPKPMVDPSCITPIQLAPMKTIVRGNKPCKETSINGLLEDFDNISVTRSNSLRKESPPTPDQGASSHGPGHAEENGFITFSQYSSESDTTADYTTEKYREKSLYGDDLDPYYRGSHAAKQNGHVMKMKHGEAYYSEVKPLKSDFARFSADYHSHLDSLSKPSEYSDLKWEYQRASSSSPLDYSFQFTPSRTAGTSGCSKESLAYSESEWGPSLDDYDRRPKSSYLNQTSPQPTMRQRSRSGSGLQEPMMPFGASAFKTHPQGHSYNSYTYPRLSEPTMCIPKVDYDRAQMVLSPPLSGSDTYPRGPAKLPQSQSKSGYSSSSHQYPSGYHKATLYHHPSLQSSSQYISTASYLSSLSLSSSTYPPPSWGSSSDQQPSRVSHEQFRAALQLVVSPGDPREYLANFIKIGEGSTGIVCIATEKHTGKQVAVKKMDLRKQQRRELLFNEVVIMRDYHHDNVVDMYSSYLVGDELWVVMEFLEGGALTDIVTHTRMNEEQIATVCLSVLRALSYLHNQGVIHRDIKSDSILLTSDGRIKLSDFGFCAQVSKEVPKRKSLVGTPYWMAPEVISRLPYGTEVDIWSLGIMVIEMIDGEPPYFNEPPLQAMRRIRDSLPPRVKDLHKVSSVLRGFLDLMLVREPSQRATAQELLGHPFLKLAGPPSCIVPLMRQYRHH

With `CCn1cc(-c2ccnc3[nH]c(-c4cccc(CN(C)C)c4)cc23)c(-c2ccc(NC(=O)N(C)C)cc2)n1` [GSK1070916], the remaining activity at 0.1 µM is 115% in test [1]; 71.8% in test [2]; 108% in test [3]; 98% in test [4]; 107% in test [5]; 91.1% in test [6]. Also, the figures for the remaining activity at 0.1 µM in test [7] and in test [8] were 101% and 99.9%, respectively.

In the case of `O=C(O)[C@]1(Cc2cccc(Nc3nccs3)n2)CC[C@@H](Oc2cccc(Cl)c2F)CC1` [MK-5108], the remaining activity at 0.1 µM in test [1] is 21.9%; in test [2], 99.6%; in test [3], 102%; in test [4], 61.8%; in test [5], 85.9%; in test [6] it was 97.2%. Besides, the results for the remaining activity at 0.1 µM in test [7] and in test [8] were 102% and 107%, respectively. Also, the remaining activity at 0.5 µM worked out at 9.25% in test [1] (500 nM); 98.2% in test [2] (500 nM); 103% in test [3] (500 nM); 29.3% in test [4] (500 nM); 108% in test [5] (500 nM); 69.4% in test [6] (500 nM). In addition, the remaining activity at 0.5 µM was 96.3% in test [7] (500 nM) and 78.1% in test [8] (500 nM).

On to `O=C(c1cccc(Cl)c1F)N1CCN(Cc2cccc(Nc3nccs3)n2)CC1` [MK-8745], for which the “% Enzyme Activity (relative to DMSO controls)” value in test [1] (500 nM) was determined as 70.47%; in test [2] (500 nM) it was 91.55%; in test [3] (500 nM), 102.17%; in test [4] (500 nM) it was 13.45%; in test [5] (500 nM), 106.28%; in test [6] (500 nM), 91.89%. Besides, the results for the “% Enzyme Activity (relative to DMSO controls)” value in test [7] (500 nM) and in test [8] (500 nM) were 95.86% and 92.01%, respectively. The remaining activity at 0.5 µM in test [1] (500 nM) is 71.4%; in test [2] (500 nM), 92.6%; in test [3] (500 nM), 104%; in test [4] (500 nM) it was 13.8%; in test [5] (500 nM), 107%; in test [6] (500 nM), 93.7%. Also, the figures for the remaining activity at 0.5 µM in test [7] (500 nM) and in test [8] (500 nM) were 96.4% and 103%, respectively.
